In patent US20250134890A1, “ANTIMALARIAL HEXAHYDROPYRIMIDINE ANALOGUES” (UCB BIOPHARMA SRL, priority 2022, published 2025):
pIC50: −log10 of the molar value. Where a name gives a salt, the structure may show the parent alone. Read-outs that look alike come from different tables or passages of the source.

Tested on: Plasmodium falciparum: 3D7 strain
Experiment: P. falciparum 3D7 asexual blood stage assay (SYBR green readout)
Type: cell-based
Conditions: P. falciparum 3D7 in human erythrocytes, 72 h incubation, SYBR green fluorescence
Source text: The compounds of the present invention are potent inhibitors of the growth and propagation of the Plasmodium falciparum parasite in human blood.
The assay used to measure the effect of test compounds on a bloodstream stage of Plasmodium falciparum: 3D7 strain employs SYBR green as the readout. This is a dye that binds to double stranded deoxyribonucleic acid (DNA) with a resulting increase in fluorescence, allowing detection of P. falciparum DNA in infected erythrocytes, and thereby providing a measure of parasite growth and propagation.
Erythrocytes (A+blood) were prepared for both parasite culture and assay by washing 4 times with incomplete media (15.9 g RPMI 1640 (25 mM HEPES, L-glutamine), 1 g NaHCO3, 2 g glucose, 400 μL gentacin (500 mg/mL), 2 mL hypoxanthine solution (13.6 g/L in 0.1M NaOH pH 7.3) in 1 litre of media). The cells were centrifuged at 1800 g for 5 minutes, before decanting the supernatant and re-suspending in fresh incomplete media. On the final wash, the cells were re-suspended in complete media (incomplete media with 5 g/L AlbumaxII), and centrifuged at 1800 g for 3 minutes. This cell sediment was treated as 100% haematocrit.
P. falciparum 3D7 was cultured in erythrocytes at 5% haematocrit in complete media at 37° C. (1% O2, 3% CO2, balance N2). Cultures were split on a weekly basis to achieve a 1% parasitaemia in erythrocites at 5% haematocrit in fresh media. Culture media is replaced by fresh media every other day (2 times during the week).
On day 1, test compounds were added to assay plates using Echo dispensing technology ([…] and 20 points titration). 50 nL of each compound dilution was added to 50 μL of culture (5% haematocrit, 0.5% parasitaemia) and incubated for 72 h at 37° C. (1% O2, 3% CO2, balance N2). Final concentrations of test compounds ranged from 50,000 nM to 15 nM, in […].
On day 4, 10 μL SYBR green (Invitrogen S7563 supplied as 10,000×concentrate in DMSO) pre-diluted to 3×concentrate with Lysis buffer (20 mM Tris pH 7.9, 5% EDTA, 0.16% w/v, 1.6% TX100 v/v) was added to the cultures and incubated in the dark, overnight, at room temperature.
On day 5, fluorescent signal was measured using a BioTek plate reader (excitation 485 nm, emission 528 nm). All data were processed using IDBS ActivityBase. Raw data were converted into percent inhibition through linear regression by setting the high inhibition control (mefloquine) as 100% and the no inhibition control (DMSO) as 0%. Quality control criteria for passing plates were as follows: Z′>0.5, S:B>3, % CV(no inhibition control)<15. The formula used to calculate Z′ is: […]
All EC50 curve fitting was undertaken using the following bi-phasic two site dose response using XLfit model 300 (IDBS):
where A=100 minus the top of the upper curve 1 and the bottom of lower curve; B=Hill slope; log(C)=IC50 concentration at lower site; log(D)=IC50 concentration at upper site; x=inhibitor concentration; and y=% inhibition.

[1] = Plasmodium falciparum, 3D7, Erythrocyte, 72 h

SMILES	pIC50 [1]	other results
C[C@@H]1C[C@@H](N2C(=N)N[C@](C)(c3cccc(-c4ccc(Cl)cn4)c3Cl)CC2=O)CCS1(=O)=O (relative stereo) [Example 77, (6S)-6-[2-Chloro-3-(5-chloro-pyridin-2-yl)phenyl]-2-imino-6-methyl-3-[(2R*,4S*)-2-methyl-1,1-dioxothian-4-yl]hexahydro-pyrimidin-4-one hydrochloride]	6.34	
CO[C@@H]1C[C@H](N2C(=N)N[C@](C)(c3cccc(-c4ccc(S(C)(=O)=O)cc4F)c3Cl)CC2=O)CCC1(F)F (relative stereo) [Example 9, (6S)-6-{2-Chloro-3-[2-fluoro-4-(methylsulfonyl)phenyl]phenyl}-3-[(1R*,3R*)-4,4-difluoro-3-methoxycyclohexyl]-2-imino-6-methylhexahydropyrimidin-4-one hydrochloride]	7.08	
C[C@@]1(c2cccc(-c3cc(C4CC4)no3)c2Cl)CC(=O)N([C@H]2CCC(F)(F)[C@@H](O)C2)C(=N)N1 (relative stereo) [Example 87, (6S)-6-[2-Chloro-3-(3-cyclopropyl-isoxazol-5-yl)phenyl]-3-[(1S*,3S*)-4,4-difluoro-3-hydroxycyclohexyl]-2-imino-6-methylhexahydro-pyrimidin-4-one hydrochloride]	5.54	
C[C@@H]1C[C@H](N2C(=N)N[C@](C)(c3cccc(-c4cn(-c5cc(F)c(F)cc5F)nn4)c3Cl)CC2=O)CC[C@@H]1O (relative stereo) [Example 113, (6S)-6-{2-Chloro-3-[1-(2,4,5-trifluorophenyl)-1,2,3-triazol-4-yl]-phenyl}-3-[(1R*,3R*,4S*)-4-hydroxy-3-methylcyclohexyl]-2-imino-6-methylhexahydro-pyrimidin-4-one hydrochloride]	6.27	
C[C@H]1C[C@@H](N2C(=N)N[C@](C)(c3cccc(-c4cccc([C@@H](O)C(F)(F)F)c4)c3Cl)CC2=O)CCO1 (relative stereo) [Example 27, (6S)-6-(2-Chloro-3-{3-[(1R*)-2,2,2-trifluoro-1-hydroxyethyl]-phenyl}phenyl)-2-imino-6-methyl-3-[(2S,4S)-2-methyltetrahydro-pyran-4-yl|hexahydropyrimidin-4-one hydrochloride]		pIC50 (Plasmodium falciparum, Erythrocyte, read-out: IC50): 7.36
C[C@@H]1C[C@H](N2C(=N)N[C@](C)(c3cccc(-c4cccc(Cl)c4)c3Cl)CC2=O)CC[C@H]1O (relative stereo) [Example 104, (6S)-6-[2-Chloro-3-(3-chloro-phenyl)phenyl]-3-[(1S*,3S*,4S*)-4-hydroxy-3-methylcyclohexyl]-2-imino-6-methylhexahydro-pyrimidin-4-one hydrochloride]	5.31	
C[C@H]1C[C@@H](N2C(=N)N[C@](C)(c3cccc(-c4ccc(F)cc4F)c3Cl)CC2=O)CCO1 [Example 51, (6S)-6-[2-Chloro-3-(2,4-difluoro-phenyl)phenyl]-2-imino-6-methyl-3-[(2S,4S)-2-methyltetrahydro-pyran-4-yl]hexahydropyrimidin-4-one trifluoroacetic acid salt]	7.02	
C[C@@]1(c2cccc(-c3cccc(Cl)c3)c2Cl)CC(=O)N([C@H]2CCC(F)(F)[C@@H](O)C2)C(=N)N1 (relative stereo) [Example 21, (S)-6-[2,3′-Dichloro(1,1′-biphenyl)-3-yl]-3-[(1S*,3S*)-4,4-difluoro-3-hydroxycyclohexyl]-2-imino-6-methyltetrahydropyrimidin-4(1H)-one trifluoroacetic acid salt]	6.14	
C[C@H]1C[C@@H](N2C(=N)N[C@](C)(c3cccc(-c4cccc(C(O)C(F)F)c4)c3Cl)CC2=O)CCO1 (single isomer, unassigned) [Example 26, (6S)-6-(2-Chloro-3-{3-[(1S*)-2,2-difluoro-1-hydroxyethyl]phenyl}-phenyl)-2-imino-6-methyl-3-[(2S,4S)-2-methyltetrahydropyran-4-yl]hexahydropyrimidin-4-one hydrochloride]		pIC50 (hydrochloride): 7.26
C=C(c1ccccc1)n1cc(-c2cccc([C@]3(C)CC(=O)N([C@H]4CCO[C@@H](C)C4)C(=N)N3)c2Cl)nn1 [Example 121, (6S)-6-{2-Chloro-3-[1-(1-phenyl-vinyl)-1,2,3-triazol-4-yl]phenyl}-2-imino-6-methyl-3-[(2S,4S)-2-methyltetrahydropyran-4-yl]-hexahydropyrimidin-4-one trifluoroacetic acid salt]	6.73	
C[C@H]1C[C@@H](N2C(=N)N[C@](C)(c3cccc(-c4cc(F)ccc4F)c3Cl)CC2=O)CCO1 [Example 42, (6S)-6-[2-Chloro-3-(2,5-difluoro-phenyl)phenyl]-2-imino-6-methyl-3-[(2S,4S)-2-methyltetrahydro-pyran-4-yl]hexahydropyrimidin-4-one trifluoroacetic acid salt]	7.06	
C[C@H]1C[C@@H](N2C(=N)N[C@](C)(c3cccc(-c4cn(CC(F)(F)F)nn4)c3Cl)CC2=O)CCO1 [Example 110, (6S)-6-{2-Chloro-3-[1-(2,2,2-trifluoroethyl)-1,2,3-triazol-4-yl]-phenyl}-2-imino-6-methyl-3-[(2S,4S)-2-methyltetrahydropyran-4-yl]hexahydropyrimidin-4-one hydrochloride]	7.89	
C[C@H]1C[C@@H](N2C(=N)N[C@](C)(c3cccc(-c4cn(CCN5CCCC5)nn4)c3Cl)CC2=O)CCO1 [Example 118, (6S)-6-(2-Chloro-3-{1-[2-(pyrrolidin-1-yl)ethyl]-1,2,3-triazol-4-yl}phenyl)-2-imino-6-methyl-3-[(2S,4S)-2-methyl-tetrahydropyran-4-yl]hexahydro-pyrimidin-4-one trifluoroacetic acid salt]	6.00	
C[C@@]1(c2cccc(-c3ccc(C4CC4)nc3)c2Cl)CC(=O)N([C@H]2CCC(F)(F)[C@@H](O)C2)C(=N)N1 (relative stereo) [Example 99, (6S)-6-[2-Chloro-3-(6-cyclopropyl-pyridin-3-yl)phenyl]-3-[(1S*,3S*)-4,4-difluoro-3-hydroxycyclohexyl]-2-imino-6-methylhexahydro-pyrimidin-4-one hydrochloride]	5.71	
C[C@H]1C[C@@H](N2C(=N)N[C@](C)(c3cccc(-c4ccc(P(C)(C)=O)cc4F)c3Cl)CC2=O)CCC1(F)F [Example 19, (6S)-6-[2-Chloro-3-(4-dimethyl-phosphoryl-2-fluorophenyl)-phenyl]-3-[(1S,3S)-4,4-difluoro-3-methylcyclohexyl]-2-imino-6-methylhexahydropyrimidin-4-one hydrochloride]	6.41	
C[C@@]1(c2cccc(-c3cccc(Cl)c3)c2Cl)CC(=O)N([C@@H]2CCC(F)(F)[C@@H](O)C2)C(=N)N1 (relative stereo) [Example 24, (6S)-6-[2-Chloro-3-(3-chloro-phenyl)phenyl]-3-[(1R*,3S*)-4,4-difluoro-3-hydroxycyclohexyl]-2-imino-6-methylhexahydro-pyrimidin-4-one trifluoroacetic acid salt]	6.95	
C[C@H]1C[C@@H](N2C(=N)N[C@](C)(c3cccc(-c4ccc(OC(F)F)nc4)c3Cl)CC2=O)CCS1(=O)=O (relative stereo) [Example 71, (6S)-6-{2-Chloro-3-[6-(difluoro-methoxy)pyridin-3-yl]phenyl}-2-imino-6-methyl-3-[(2S*,4S*)-2-methyl-1,1-dioxothian-4-yl]-hexahydropyrimidin-4-one hydrochloride]	6.82	
